Laboratory results from PubChem BioAssay (NCI).
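All cell lines were grown in 96-well plates and treated with compound for 48 hours. TGI: concentration producing complete growth inhibition.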

Tests used:
Experiment in all cases: inhibition of tumour cell growth, NCI panel, 48 h
[1] = tested on: HCT-116 colon
[2] = tested on: HL-60(TB) leukemia
[3] = tested on: SN12C renal
[4] = tested on: SK-MEL-5 melanoma
[5] = tested on: MOLT-4 leukemia
[6] = tested on: ACHN renal
[7] = tested on: SK-OV-3 ovarian
[8] = tested on: HOP-92 NSCLC
[9] = tested on: EKVX NSCLC
[10] = tested on: A549 NSCLC
[11] = tested on: U251 CNS
[12] = tested on: M14 melanoma
[13] = tested on: HOP-18 NSCLC
[14] = tested on: K-562 leukemia
[15] = tested on: SW-620 colon
[16] = tested on: XF 498 CNS
[17] = tested on: LXFL 529 NSCLC
[18] = tested on: SK-MEL-28 melanoma
[19] = tested on: RXF-631 renal
[20] = tested on: CCRF-CEM leukemia
[21] = tested on: SF-295 CNS
[22] = tested on: HOP-62 NSCLC
[23] = tested on: NCI-H460 lung
[24] = tested on: COLO 205 colon
[25] = tested on: OVCAR-8 ovarian
[26] = tested on: NCI-H522 lung
[27] = tested on: A498 renal
[28] = tested on: TK-10 renal
[29] = tested on: SF-268 CNS
[30] = tested on: DLD-1 colon
[31] = tested on: SF-539 CNS
[32] = tested on: NCI-H23 lung
[33] = tested on: DMS 273 small cell lung
[34] = tested on: LOX IMVI melanoma
[35] = tested on: KM20L2 colon
[36] = tested on: RXF 393 renal
[37] = tested on: HCT-15 colon
[38] = tested on: UO-31 renal
[39] = tested on: DMS 114 small cell lung
[40] = tested on: RPMI-8226 leukemia
[41] = tested on: UACC-257 melanoma
[42] = tested on: M19-MEL melanoma
[43] = tested on: OVCAR-3 ovarian
[44] = tested on: HCC-2998 colon
[45] = tested on: CAKI-1 renal
[46] = tested on: HT29 colon
[47] = tested on: NCI-H226 lung
[48] = tested on: UACC-62 melanoma
[49] = tested on: OVCAR-4 ovarian
[50] = tested on: 786-0 renal
[51] = tested on: SNB-75 CNS
[52] = tested on: SK-MEL-2 melanoma
[53] = tested on: IGROV1 ovarian
[54] = tested on: SNB-78 CNS
[55] = tested on: SR leukemia
[56] = tested on: OVCAR-5 ovarian
[57] = tested on: KM12 colon
[58] = tested on: MALME-3M melanoma
[59] = tested on: SNB-19 CNS

Nc1ccn(C2OC(C(O)CO)C(O)C2O)c(=O)n1 (stereo unspecified)
TGI [1]: > 100 µM | TGI [2]: > 100 µM | TGI [3]: > 100 µM | TGI [4]: > 100 µM | TGI [5]: > 100 µM | TGI [6]: > 100 µM | TGI [7]: > 100 µM | TGI [8]: > 100 µM | TGI [9]: > 100 µM | TGI [10]: > 100 µM | TGI [11]: > 100 µM | TGI [12]: > 100 µM | TGI [13]: > 100 µM | TGI [14]: > 100 µM | TGI [15]: > 100 µM | TGI [16]: > 100 µM | TGI [17]: > 100 µM | TGI [18]: > 100 µM | TGI [19]: > 100 µM | TGI [20]: > 100 µM | TGI [21]: > 100 µM | TGI [22]: > 100 µM | TGI [23]: > 100 µM | TGI [24]: > 100 µM | TGI [25]: > 100 µM | TGI [26]: > 100 µM | TGI [27]: > 100 µM | TGI [28]: > 100 µM | TGI [29]: > 100 µM | TGI [30]: > 100 µM | TGI [31]: > 100 µM | TGI [32]: > 100 µM | TGI [33]: > 100 µM | TGI [34]: > 100 µM | TGI [35]: > 100 µM | TGI [36]: > 100 µM | TGI [37]: > 100 µM | TGI [38]: > 100 µM | TGI [39]: > 100 µM | TGI [40]: > 100 µM

O=S(=O)(c1ccccc1)N1N=C2c3ccccc3CCC[C@H]2C1c1ccccc1 (stereo partly specified)
TGI [41]: > 100 µM | TGI [1]: > 100 µM | TGI [2]: > 100 µM | TGI [3]: > 100 µM | TGI [4]: > 100 µM | TGI [5]: > 100 µM | TGI [42]: > 100 µM | TGI [6]: > 100 µM | TGI [43]: > 100 µM | TGI [44]: > 100 µM | TGI [7]: > 100 µM | TGI [8]: > 100 µM | TGI [45]: > 100 µM | TGI [9]: > 100 µM | TGI [10]: > 100 µM | TGI [11]: > 100 µM | TGI [46]: > 100 µM | TGI [12]: > 100 µM | TGI [13]: > 100 µM | TGI [14]: > 100 µM | TGI [47]: > 100 µM | TGI [48]: > 100 µM | TGI [15]: > 100 µM | TGI [16]: > 100 µM | TGI [17]: > 100 µM | TGI [18]: > 100 µM | TGI [20]: > 100 µM | TGI [21]: > 100 µM | TGI [22]: > 100 µM | TGI [23]: > 100 µM | TGI [49]: > 100 µM | TGI [24]: > 100 µM | TGI [50]: > 100 µM | TGI [25]: > 100 µM | TGI [51]: > 100 µM | TGI [26]: > 100 µM | TGI [52]: > 100 µM | TGI [53]: > 100 µM | TGI [27]: > 100 µM | TGI [54]: > 100 µM | TGI [28]: > 100 µM | TGI [29]: > 100 µM | TGI [55]: > 100 µM | TGI [30]: > 100 µM | TGI [31]: > 100 µM | TGI [32]: > 100 µM | TGI [33]: > 100 µM | TGI [56]: > 100 µM | TGI [34]: > 100 µM | TGI [35]: > 100 µM | TGI [36]: > 100 µM | TGI [57]: > 100 µM | TGI [37]: > 100 µM | TGI [38]: > 100 µM | TGI [39]: > 100 µM | TGI [58]: > 100 µM | TGI [59]: > 100 µM | TGI [40]: > 100 µM

CN(CCN(C)C(=O)CCn1cc(F)c(=O)[nH]c1=O)C(=O)CCn1cc(F)c(=O)[nH]c1=O
TGI [1]: > 100 µM | TGI [2]: > 100 µM | TGI [3]: > 100 µM | TGI [4]: > 100 µM | TGI [5]: > 100 µM | TGI [42]: > 100 µM | TGI [6]: > 100 µM | TGI [43]: > 100 µM | TGI [44]: > 100 µM | TGI [9]: > 100 µM | TGI [10]: > 100 µM | TGI [11]: > 100 µM | TGI [46]: > 100 µM | TGI [12]: > 100 µM | TGI [14]: > 100 µM | TGI [47]: > 100 µM | TGI [48]: > 100 µM | TGI [15]: > 100 µM | TGI [16]: > 100 µM | TGI [17]: > 100 µM | TGI [18]: > 100 µM | TGI [20]: > 100 µM | TGI [21]: > 100 µM | TGI [22]: > 100 µM | TGI [23]: > 100 µM | TGI [49]: > 100 µM | TGI [24]: > 100 µM | TGI [50]: > 100 µM | TGI [25]: > 100 µM | TGI [51]: > 100 µM | TGI [26]: 12.5 µM | TGI [52]: > 100 µM | TGI [53]: > 100 µM | TGI [28]: > 100 µM | TGI [29]: > 100 µM | TGI [55]: > 100 µM | TGI [31]: > 100 µM | TGI [32]: > 100 µM | TGI [33]: > 100 µM | TGI [56]: > 100 µM | TGI [34]: > 100 µM | TGI [35]: > 100 µM | TGI [36]: > 100 µM | TGI [57]: > 100 µM | TGI [37]: > 100 µM | TGI [38]: > 100 µM | TGI [39]: > 100 µM | TGI [58]: > 100 µM | TGI [59]: > 100 µM | TGI [40]: > 100 µM

O=C(CSc1c2ccccc2nc2ccccc12)Nc1ccccc1-c1ccccc1NC(=O)CSc1c2ccccc2nc2ccccc12
TGI [41]: 75.8 µM | TGI [1]: > 100 µM | TGI [2]: 18.7 µM | TGI [3]: > 83.5 µM | TGI [4]: 28.3 µM | TGI [5]: > 54.4 µM | TGI [42]: 61.1 µM | TGI [6]: > 100 µM | TGI [43]: 31 µM | TGI [44]: 34.5 µM | TGI [7]: > 100 µM | TGI [8]: 96.1 µM | TGI [45]: > 73.8 µM | TGI [9]: > 76.6 µM | TGI [10]: > 100 µM | TGI [11]: > 100 µM | TGI [46]: > 100 µM | TGI [12]: > 73.9 µM | TGI [13]: > 100 µM | TGI [14]: > 30.1 µM | TGI [47]: > 80.5 µM | TGI [48]: 52.7 µM | TGI [15]: > 100 µM | TGI [16]: 46.2 µM | TGI [17]: 25.9 µM | TGI [18]: 52 µM | TGI [20]: > 78.7 µM | TGI [21]: > 81.2 µM | TGI [22]: > 63.3 µM | TGI [23]: > 88.4 µM | TGI [49]: > 40.3 µM | TGI [24]: > 75 µM | TGI [50]: 69.4 µM | TGI [25]: > 86.8 µM | TGI [51]: > 100 µM | TGI [26]: 37.2 µM | TGI [52]: 45.3 µM | TGI [53]: 42.8 µM | TGI [27]: > 93.4 µM | TGI [54]: 92.2 µM | TGI [28]: > 100 µM | TGI [29]: > 69.4 µM | TGI [55]: > 31.6 µM | TGI [30]: 33.4 µM | TGI [31]: > 64.7 µM | TGI [32]: 61.6 µM | TGI [33]: > 100 µM | TGI [56]: > 100 µM | TGI [34]: 39.1 µM | TGI [35]: > 100 µM | TGI [36]: 52 µM | TGI [57]: > 62 µM | TGI [37]: 66.6 µM | TGI [38]: > 100 µM | TGI [39]: 46.8 µM | TGI [58]: > 91.3 µM | TGI [59]: > 61.7 µM | TGI [40]: 30.4 µM
